The source made the active and inactive calls. No cut-off for these calls is given here.
What was measured:
SW1990 = assay: Antiproliferative activity against human SW1990 cells assessed as inhibition of cell growth measured after 72 hrs by SRB assay; assay type: functional, cell-based
Panc 05.04 = assay: Antiproliferative activity against human Panc 05.04 cells assessed as inhibition of cell growth measured after 72 hrs by SRB assay; assay type: functional, cell-based
PANC-1 [1] = assay: Upregulation of cleaved PARP level in human PANC-1 cells at 0.1 to 10 uM measured after 24 hrs by Western blot analysis; assay type: functional, cell-based; conditions: dose 0.1-10 µM
ASPC1 [2] = assay: Synergistic antiproliferative activity against human ASPC1 cells at 0 to 15 uM incubated for 72 hrs in presence of MRTX1133 by SRB assay; assay type: functional, cell-based; conditions: dose 0-15 µM
HPAF-II = assay: Synergistic antiproliferative activity against human HPAF-II cells assessed as combination index upto 20 uM incubated for 72 hrs in presence of MRTX1133; assay type: functional
KP-4 = assay: Inhibition of colony formation in human KP-4 cells at 5 to 10 uM in presence of MRTX1133 measured after 10 to 14 days by crystal violet staining based analysis; assay type: functional, cell-based; conditions: dose 5-10 µM, time 10-14 day
ASPC1 [3] = assay: Downregulation of H3K9me2 level in human ASPC1 cells at 10 uM incubated for 24 hrs in presence of 1 uM MRTX1133 by Western blot analysis; assay type: functional, cell-based
ASPC1 [4] = assay: Sensitization of human ASPC1 cells to MRTX1133 assessed as upregulation of cleaved PARP level at 10 uM incubated for 24 hrs in presence of 1 uM MRTX1133 by Western blot analysis; assay type: functional, cell-based
ASPC1 [5] = assay: Sensitization of human ASPC1 cells to MRTX1133 assessed as upregulation of gammaH2AX level at 10 uM incubated for 24 hrs in presence of 1 uM MRTX1133 by Western blot analysis; assay type: functional, cell-based
[6] = Bioavailability in male ICR mouse at 20 mg/kg, ip measured upto 24 hrs by LC-MS/MS analysis; assay type: ADME, organism-based; conditions: in vivo
[7] = Clearance in male ICR mouse at 5 mg/kg, iv measured upto 24 hrs by LC-MS/MS analysis; assay type: ADME, organism-based; conditions: in vivo
[8] = biological target: T1, Protein cereblon/Histone-lysine N-methyltransferase EHMT2 (Homo sapiens, UniProt Q96KQ7+Q96SW2); assay: PROTAC activity at CRBN/G9a in human PANC-1 cells assessed as induction of G9a degradation measured after 8 hrs by Western blot analysis; assay type: cell-based
PANC-1 [9] = assay: Effect on H3K4me1 level in human PANC-1 cells at 0.04 to 10 uM measured after 24 hrs by Western blot analysis; assay type: functional, cell-based; conditions: dose 0.04-10 µM
PANC-1 [10] = assay: Effect on H3K79me3 level in human PANC-1 cells at 0.04 to 10 uM measured after 24 hrs by Western blot analysis; assay type: functional, cell-based; conditions: dose 0.04-10 µM
[11] = biological target: T1, Protein cereblon/Histone-lysine N-methyltransferase EHMT2; assay: PROTAC activity at CRBN/G9a in human PANC-1 cells assessed as induction of G9a degradation at 1 uM pretreated with UNC0638 for 2 hrs followed by compound addition and measured after 8 hrs by Western blot analysis; assay type: cell-based
Target sequence in this assay (Q96KQ7 2-1210 limits assumed): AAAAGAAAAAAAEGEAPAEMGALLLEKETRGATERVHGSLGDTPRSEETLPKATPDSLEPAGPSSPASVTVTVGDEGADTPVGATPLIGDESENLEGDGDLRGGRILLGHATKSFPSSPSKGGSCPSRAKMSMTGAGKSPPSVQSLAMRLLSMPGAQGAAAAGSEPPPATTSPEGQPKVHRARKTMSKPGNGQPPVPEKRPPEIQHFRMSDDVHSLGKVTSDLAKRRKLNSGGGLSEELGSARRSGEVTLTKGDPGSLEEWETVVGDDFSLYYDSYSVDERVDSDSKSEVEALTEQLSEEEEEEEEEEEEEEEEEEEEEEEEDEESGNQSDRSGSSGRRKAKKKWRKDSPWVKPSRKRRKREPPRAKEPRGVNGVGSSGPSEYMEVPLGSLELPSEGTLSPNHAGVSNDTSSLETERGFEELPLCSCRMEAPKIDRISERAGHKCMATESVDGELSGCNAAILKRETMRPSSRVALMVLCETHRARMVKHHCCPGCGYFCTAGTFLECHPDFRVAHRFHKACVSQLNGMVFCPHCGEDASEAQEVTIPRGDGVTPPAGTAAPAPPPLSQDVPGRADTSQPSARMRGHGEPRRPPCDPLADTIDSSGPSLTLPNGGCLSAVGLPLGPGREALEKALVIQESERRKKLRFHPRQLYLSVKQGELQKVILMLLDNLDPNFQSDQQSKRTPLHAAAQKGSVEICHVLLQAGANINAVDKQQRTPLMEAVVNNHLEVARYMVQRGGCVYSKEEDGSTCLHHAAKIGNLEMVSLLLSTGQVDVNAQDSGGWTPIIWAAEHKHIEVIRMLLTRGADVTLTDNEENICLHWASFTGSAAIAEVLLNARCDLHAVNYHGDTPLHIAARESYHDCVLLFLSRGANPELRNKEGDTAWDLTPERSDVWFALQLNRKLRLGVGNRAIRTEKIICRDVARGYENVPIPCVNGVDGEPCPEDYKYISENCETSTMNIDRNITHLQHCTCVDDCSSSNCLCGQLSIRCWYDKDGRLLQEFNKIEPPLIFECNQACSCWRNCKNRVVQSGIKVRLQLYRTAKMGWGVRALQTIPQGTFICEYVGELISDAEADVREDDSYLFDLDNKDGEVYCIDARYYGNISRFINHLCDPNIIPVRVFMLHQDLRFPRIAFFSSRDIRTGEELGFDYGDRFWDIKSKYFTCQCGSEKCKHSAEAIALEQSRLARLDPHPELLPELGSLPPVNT
Target sequence in this assay (Q96SW2 whole entry partner): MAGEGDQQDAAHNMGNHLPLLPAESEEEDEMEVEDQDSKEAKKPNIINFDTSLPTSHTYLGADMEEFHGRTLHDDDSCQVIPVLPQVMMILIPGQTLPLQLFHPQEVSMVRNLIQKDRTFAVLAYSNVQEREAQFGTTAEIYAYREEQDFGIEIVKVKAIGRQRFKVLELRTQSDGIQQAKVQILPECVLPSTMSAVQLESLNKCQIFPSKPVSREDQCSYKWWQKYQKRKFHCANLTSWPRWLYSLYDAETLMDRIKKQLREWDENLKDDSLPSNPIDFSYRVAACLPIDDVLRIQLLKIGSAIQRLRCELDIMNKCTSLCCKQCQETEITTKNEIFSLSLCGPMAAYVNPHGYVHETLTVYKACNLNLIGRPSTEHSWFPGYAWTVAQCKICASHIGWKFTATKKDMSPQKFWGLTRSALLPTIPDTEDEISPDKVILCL

[12] = biological target: T1, Protein cereblon/Histone-lysine N-methyltransferase EHMT2; assay: PROTAC activity at CRBN/G9a in human PANC-1 cells assessed as induction of G9a degradation at 1 uM pretreated with thalidomide for 2 hrs followed by compound addition and measured after 8 hrs by Western blot analysis; assay type: cell-based
Target sequence in this assay (Q96KQ7 2-1210 limits assumed): as the sequence (Q96KQ7 2-1210 limits assumed) above
Target sequence in this assay (Q96SW2 whole entry partner): as the sequence (Q96SW2 whole entry partner) above

bioavailability [6]: 40.6%
clearance [7]: 22.4 mL/min/kg
Activity [8]: Dose-Dependent Effect
DC50 [8]: 100 nM
Activity [11]: inactive
Activity [12]: inactive
SMILES: COc1cc2c(NC3CCN(CCCC(=O)NCCCCCCCCNc4cccc5c4C(=O)N(C4CCC(=O)NC4=O)C5=O)CC3)nc(C3CCCCC3)nc2cc1OCCCN1CCCC1 (configuration not stated)
Activity (SW1990): Active
Activity (Panc 05.04): Active
Activity (PANC-1 [1]): Active
Activity (ASPC1 [2]): Active
CI (HPAF-II): <0.8
inhibition (KP-4): Active
Activity (ASPC1 [3]): Active
Activity (ASPC1 [4]): Active
Activity (ASPC1 [5]): Active
Activity (PANC-1 [9]): inactive
Activity (PANC-1 [10]): inactive
